Structures are written as SMILES.

One test concerns the target T1, PD-1/PD-L1 (Homo sapiens, UniProt Q9NZQ7).
T1 construct: purchased Cisbio 63ADK000CPDPEB
Put plainly: PD-1/PD-L1 binding assay (HTRF, PPI-HTRF). To be noted: HTRF PD1/PD-L1 binding assay kit; 10 nM Tag1-PD-L1; 25° C. The essentials: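 HTRF binding assay: compound was mixed with tagged proteins at final concentrations of 10 nM Tag1-PD-L1 and 2 nM PD1 for 15 min at 25 °C. Anti-Tag1-Eu³⁺ and anti-Tag2-XL665 antibodies were then added for 16 h at 25 °C. IC50 was derived from the 665/620 nm emission ratio.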
(Time-resolved FRET reads energy transfer from a long-lived donor to a nearby acceptor.)

In test [1] the test system is Jurkat T(PD1 Luc-)/CHOK1(PDL-1). Put plainly: Jurkat T(PD1 Luc-)/CHOK1(PDL-1) cell experiment (luciferase reporter). Format: cell-based. To be noted: CHO/PD-L1-OKT3 cells co-cultured with Jurkat/PD1-NFAT-Luc cells for 6 hours; Bio-Glo luciferase signal. The essentials:
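CHO/PD-L1-OKT3 cells plated 24 h at 37 °C, then compound in DMSO (1 uM final) added together with Jurkat/PD1-NFAT-Luc cells and co-cultured 6 h. Luciferase signal read with Bio-Glo; EC50 by non-linear regression.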

T1 sequence (Q9NZQ7 19-238 limits assumed): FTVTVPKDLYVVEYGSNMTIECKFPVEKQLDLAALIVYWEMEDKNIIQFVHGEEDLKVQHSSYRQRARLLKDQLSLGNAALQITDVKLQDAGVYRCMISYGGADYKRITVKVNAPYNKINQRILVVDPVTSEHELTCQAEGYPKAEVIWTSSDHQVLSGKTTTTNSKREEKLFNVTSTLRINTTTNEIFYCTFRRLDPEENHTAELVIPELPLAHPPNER

In turn, `COc1cc(C(=O)Nc2cccc(-c3cccc(/C=C/c4cc(OC)c(CN5CCC[C@H]5C(=O)O)cc4C(F)(F)F)c3C)c2C)ncc1CNCCO` [Z-112] registered an IC50 at PD-1/PD-L1 of 1 nM. In test [1], the EC50 was determined as 25 nM.

`COc1cc(/C=C/c2cccc(-c3cccc(NC(=O)c4nc5c(n4C)CCN(CCO)C5)c3Cl)c2C)c(C(F)(F)F)cc1CN1CCCC[C@H]1C(=O)O` [Z-113, (S, E)-1-(4-(2-(2′-chloro-3′-(5-(2-hydroxyethyl)-1-methyl-4,5,6,7-tetrahydro-1H-imidazo [4,5-c]pyridine-2-carboxamido)-2-methyl-[1,1′-biphenyl]-3-yl)vinyl)-2-methoxy-5-(trifluoromethyl)benzyl) piperidine-2-carboxylic Acid] yielded a 50% inhibitory concentration (IC50) at PD-1/PD-L1 of 1 nM. The same compound yielded an EC50 in test [1] of 66 nM.

On PD-1/PD-L1, `COc1cc(C(=O)Nc2cccc(-c3cccc(/C=C/c4cc(OC)c(CN5CC[C@@H](C(=O)O)C5)cc4C(F)(F)F)c3C)c2C)ncc1CN1CC(CO)C1` [Z-114, (R,E)-1-(4-(2-(3′-(5-((3-(hydroxymethyl)azetidin-1-yl)methyl)-4-methoxypicolinamido)-2,2′-dimethyl-[1,1′-biphenyl]-3-yl)vinyl)-2-methoxy-5-(trifluoromethyl)benzyl)pyrrolidine-3-carboxylic Acid] returned a half-maximal inhibitory concentration (IC50) of 1 nM. Also, the EC50 in test [1] came to 54 nM.

At PD-1/PD-L1, `COc1cc(C(=O)Nc2cccc(-c3cccc(/C=C/c4cc(OC)c(CN5CCC[C@H]5C(=O)O)cc4C(F)(F)F)c3C)c2C)ncc1CN1CC[C@@H](O)C1` [Z-115] showed a concentration for half-maximal inhibition (IC50) of 1 nM. In test [1], this compound returned an EC50 of 31 nM.

In the case of `COc1cc(C(=O)Nc2cccc(-c3cccc(/C=C/c4cc(OC)c(CN5CC[C@@H](C(=O)O)C5)cc4C(F)(F)F)c3C)c2C)ncc1CN1CC[C@@H](O)C1` [Z-117], the IC50 at PD-1/PD-L1 turned out to be 1 nM. Besides, in test [1], the concentration for a half-maximal effect (EC50) stood at 13 nM.

`COc1cc(/C=C/c2cccc(-c3cccc(NC(=O)c4cc(OC)c(CN5CC[C@@H](O)C5)cn4)c3C)c2C)c(C(F)(F)F)cc1CNC[C@@H](O)CC(=O)O` [Z-118, (S)-3-hydroxy-4-((4-((E)-2-(3′-(5-(((R)-3-hydroxypyrrolidin-1-yl)methyl)-4-methoxypicolinamido)-2,2′-dimethyl-[1,1′-biphenyl]-3-yl)vinyl)-2-methoxy-5-(trifluoromethyl)benzyl)amino) butanoic Acid] returned a half-maximal inhibitory concentration (IC50) on PD-1/PD-L1 of 1 nM. A half-maximal response in test [1] (EC50) required 13 nM.

In the case of `COc1cc(/C=C/c2cccc(-c3cccc(NC(=O)c4cc(CN5CC[C@@H](O)C5)ccn4)c3C)c2C)c(C(F)(F)F)cc1CN1CC[C@@H](C(=O)O)C1` [Z-120], at PD-1/PD-L1, the half-inhibitory concentration (IC50) was 1 nM. In test [1], the EC50 came out at 15 nM.

`COc1cc(C(=O)Nc2cccc(-c3cccc(/C=C/c4cc(OC)c(CN5CCC(C)(C(=O)O)C5)cc4C(F)(F)F)c3C)c2C)ncc1CN1CC[C@@H](O)C1` (stereo partly drawn) [Z-121] returned an IC50 at PD-1/PD-L1 of 1 nM. Besides, the concentration giving a half-maximal response (EC50) in test [1] was determined as 31 nM.

With `COc1cc(/C=C/c2cccc(-c3cccc(NC(=O)c4cc(OC)c(CN5CC[C@@H](O)C5)cn4)c3C)c2C)c(C(F)(F)F)cc1CN1CCC(C(=O)O)CC1` [Z-122], the half-maximal inhibitory concentration (IC50) at PD-1/PD-L1 was 1 nM. The compound further returned an EC50 in test [1] of 18 nM.

The compound `COc1cc(C(=O)Nc2cccc(-c3cccc(/C=C/c4cc(CN5CC[C@@H](C(=O)O)C5)ccc4C(F)(F)F)c3C)c2C)ncc1CN1CC[C@@H](O)C1` [Z-124] had an IC50 at PD-1/PD-L1 of 1 nM. The compound also displayed an EC50 in test [1] of 109 nM.

Take `COC(=O)C[C@H](O)CNCc1cc(C(F)(F)F)c(/C=C/c2cccc(-c3cccc(NC(=O)c4cc(OC)c(CN5CC[C@@H](O)C5)cn4)c3C)c2C)cc1OC` [Z-128]: the concentration for half-maximal inhibition (IC50) at PD-1/PD-L1 was under 1 nM. In test [1], this compound displayed a half-maximal effective concentration (EC50) of 39 nM.

`COc1cc(/C=C/c2cccc(-c3cccc(NC(=O)c4nc5c(n4C)CCN([C@H]4CC[C@@H](O)CC4)C5)c3C)c2C)c(C(F)(F)F)cc1CN1CC[C@@H](C(=O)O)C1` [Z-131, (R)-1-(4-((E)-2-(3′-(5-((1s,4s)-4-hydroxycyclohexyl)-1-methyl-4,5,6,7-tetrahydro-1H-imidazo[4,5-c]pyridine-2-carboxamido)-2,2′-dimethyl-[1,1′-biphenyl]-3-yl)vinyl)-2-methoxy-5-(trifluoromethyl)benzyl)pyrrolidine-3-carboxylic Acid]: at PD-1/PD-L1, the IC50 was determined as 1 nM. The compound further came in with an EC50 in test [1] of 124 nM.

On PD-1/PD-L1, `COc1cc(/C=C/c2cccc(-c3cccc(NC(=O)c4nc5c(n4C)CCN([C@H]4CC[C@H](O)CC4)C5)c3C)c2C)c(C(F)(F)F)cc1CN1CC[C@@H](C(=O)O)C1` [Z-132, (R)-1-(4-((E)-2-(3′-(5-((1r,4r)-4-hydroxycyclohexyl)-1-methyl-4,5,6,7-tetrahydro-1H-imidazo[4,5-c]pyridine-2-carboxamido)-2,2′-dimethyl-[1,1′-biphenyl]-3-yl)vinyl)-2-methoxy-5-(trifluoromethyl)benzyl)pyrrolidine-3-carboxylic Acid] showed an IC50 of 1 nM. In addition, the midpoint of the response in test [1], the EC50, lay at 168 nM.

Compound `COC(=O)[C@@H]1CCN(Cc2cc(C(F)(F)F)c(/C=C/c3cccc(-c4cccc(NC(=O)c5cc(OC)c(CN6CC[C@@H](O)C6)cn5)c4C)c3C)cc2OC)C1` [Z-133] came in with a half-inhibitory concentration (IC50) at PD-1/PD-L1 of 2 nM. This compound showed an EC50 in test [1] of 31 nM.

For the compound `COc1cc(/C=C/c2cccc(-c3cccc(NC(=O)c4nc5c(n4C)CCN(C(C)C)C5)c3C)c2C)c(C(F)(F)F)cc1CN1CC[C@@H](C(=O)O)C1` [Z-134, (R,E)-1-(4-(2-(3′-(5-isopropyl-1-methyl-4,5,6,7-tetrahydro-1H-imidazo[4,5-c]pyridine-2-carboxamido)-2,2′-dimethyl-[1,1′-biphenyl]-3-yl)vinyl)-2-methoxy-5-(trifluoromethyl)benzyl)pyrrolidine-3-carboxylic Acid], the concentration for half-maximal inhibition (IC50) at PD-1/PD-L1 was 1 nM. It took 91 nM to reach a half-maximal effect in test [1] (EC50).

In turn, `COc1cc(C(=O)Nc2cccc(-c3cccc(/C=C/c4cc(OC)c(CN5CC[C@@H](O)C5)cc4C(F)(F)F)c3C)c2C)ncc1CN1CC[C@@H](O)C1` [Z-135] gave a concentration for half-maximal inhibition (IC50) on PD-1/PD-L1 of at most 1 nM. The midpoint of the response in test [1], the EC50, lay at 44 nM.

As to `COc1cc(C(=O)Nc2cccc(-c3cccc(/C=C/c4cc(OC)c(CN5CC[C@@H](C(=O)O)C5)cc4C(F)(F)F)c3Cl)c2C)ncc1CN1CC[C@@H](O)C1` [Z-140], the IC50 on PD-1/PD-L1 is at most 1 nM. Also, it took 7 nM to reach a half-maximal effect in test [1] (EC50).

Turning to `CNc1cc(C(=O)Nc2cccc(-c3cccc(/C=C/c4cc(OC)c(CN5CCC(C(=O)O)C5)cc4C(F)(F)F)c3C)c2C)ncc1CN1CC[C@@H](O)C1` (stereo partly drawn) [Z-141], the half-inhibitory concentration (IC50) at PD-1/PD-L1 is at most 1 nM. This compound also had an EC50 in test [1] of 74 nM.

For orientation: IC50 means the midpoint of a concentration-inhibition curve. High values mean weaker potency, low ones greater potency. One may read the EC50 as the concentration giving half of the maximal effect. High values mean weaker potency, low ones greater potency.

For the origin of these results see US20210386721A1, “SUBSTITUTED PHENYLPROPENYL PYRIDINE DERIVATIVES, THEIR PREPARATION AND PHARMACEUTICAL APPLICATIONS” (SHANGHAI HAIYAN PHARMACEUTICAL TECHNOLOGY CO., LTD., priority 2019, published 2021).
